# Reference: patent US20240360151A1 (SANOFI, priority 2023, published 2024)
# How the values were obtained:
# NLRP3 inflammasome = target: T1, NLRP3 inflammasome (Homo sapiens, UniProt Q96P20); assay: IL-1β secretion assay (NLRP3 IC50) in LPS-primed, nigericin-activated THP-1 cells, HTRF; format: cell-based; conditions: monocytic THP-1 cells; LPS 10 ng/mL 3 h priming, then compound + nigericin 10 μM 2 h; relative IC50, 10 concentrations, geometric mean
# T1 construct: endogenous in cells; host or cells: THP-1 monocytic cells
# Outline: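 IL-1β in supernatant read by HTRF after 2 h co-incubation of compound (0.1% DMSO, 10 concentrations, 1:3 series) with nigericin at 10 μM final, following 3 h LPS (10 ng/mL) priming of THP-1 monocytes at 37° C. Inhibition normalised to unactivated and no-compound controls; geometric-mean relative IC50 from 4-parameter logistic model.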
# [1] = system: NF-kB pathway (TNF-α secretion by THP-1 cells); assay: TNF-α secretion assay in LPS-stimulated THP-1 cells, Lumit immunoassay; format: cell-based, human; conditions: Homo sapiens, THP-1, 3 h, monocytic THP-1 cells, LPS 10 ng/mL, relative IC50, 10 concentrations, geometric mean
# Outline: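 TNF-α release was quantified directly in the cell plate by Lumit immunoassay after a 3-h, 10 ng/mL LPS trigger of compound-treated THP-1 cells (RPMI, 5% FBS). Percent inhibition versus no-compound and unstimulated controls fed a 4-parameter logistic fit over 10 concentrations, giving geometric-mean relative IC50.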
# T1 sequence (Q96P20 whole entry): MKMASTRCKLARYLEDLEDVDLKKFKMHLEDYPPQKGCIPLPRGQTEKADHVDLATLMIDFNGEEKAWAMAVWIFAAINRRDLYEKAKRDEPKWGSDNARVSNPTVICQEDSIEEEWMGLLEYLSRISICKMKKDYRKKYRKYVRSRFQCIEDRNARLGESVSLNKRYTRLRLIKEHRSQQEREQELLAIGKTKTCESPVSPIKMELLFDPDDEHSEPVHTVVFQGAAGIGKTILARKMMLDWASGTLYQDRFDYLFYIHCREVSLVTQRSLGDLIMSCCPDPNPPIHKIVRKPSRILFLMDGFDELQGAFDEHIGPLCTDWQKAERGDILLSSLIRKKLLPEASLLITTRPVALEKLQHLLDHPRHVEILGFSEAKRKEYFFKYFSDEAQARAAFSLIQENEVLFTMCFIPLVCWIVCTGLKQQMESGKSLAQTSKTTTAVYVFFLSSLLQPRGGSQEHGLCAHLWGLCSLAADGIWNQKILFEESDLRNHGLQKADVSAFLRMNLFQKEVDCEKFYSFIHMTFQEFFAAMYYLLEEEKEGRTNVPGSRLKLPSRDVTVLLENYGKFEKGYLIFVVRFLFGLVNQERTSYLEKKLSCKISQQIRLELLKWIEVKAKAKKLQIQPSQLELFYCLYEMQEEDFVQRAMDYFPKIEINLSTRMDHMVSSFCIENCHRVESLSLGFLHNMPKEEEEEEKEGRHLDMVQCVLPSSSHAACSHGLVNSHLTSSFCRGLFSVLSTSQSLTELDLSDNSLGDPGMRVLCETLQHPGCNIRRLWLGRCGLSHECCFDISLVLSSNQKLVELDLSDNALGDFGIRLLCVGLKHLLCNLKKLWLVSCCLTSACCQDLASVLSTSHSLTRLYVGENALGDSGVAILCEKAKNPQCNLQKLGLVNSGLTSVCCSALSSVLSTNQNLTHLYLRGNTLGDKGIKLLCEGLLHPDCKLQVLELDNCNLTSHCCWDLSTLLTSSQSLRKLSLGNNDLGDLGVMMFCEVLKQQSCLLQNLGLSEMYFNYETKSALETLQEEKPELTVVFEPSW
Compound,IC50 (NLRP3 inflammasome) [nM],IC50 [1] [nM]
"Cc1ccc(-c2nnc(N3CCO[C@H](CO)C3)cc2C)c(O)c1 [Example 76, 2-[6-[(2S)-2-(hydroxymethyl)morpholin-4-yl]-4-methyl-pyridazin-3-yl]-5-methyl-phenol]",66,8600
"Cc1ccc(-c2nnc(N3CCO[C@H](CO)C3)c3c2CCC3)c(O)c1 [Example 77, 2-[4-[(2S)-2-(hydroxymethyl)morpholin-4-yl]-6,7-dihydro-5H-cyclopenta[d]pyridazin-1-yl]-5-methyl-phenol]",135,> 10000
"OC[C@@H]1CN(c2nnc(-c3ccc(Cl)cc3O)c3c2CCC3)CCO1 [Example 78, 5-chloro-2-[4-[(2S)-2-(hydroxymethyl)morpholin-4-yl]-6,7-dihydro-5H-cyclopenta[d]pyridazin-1-yl]phenol]",436,> 10000
"Cc1cc(C)c(-c2ccc(N3CC[C@H](CO)C3)nn2)c(O)c1 [Example 79, 2-[6-[(3S)-3-(hydroxymethyl)pyrrolidin-1-yl]pyridazin-3-yl]-3,5-dimethyl-phenol]",285,9500
"Cc1ccc(-c2nnc(N3CCO[C@H](CO)C3)c(C)c2C)c(O)c1 [Example 80, 2-[6-[(2S)-2-(hydroxymethyl)morpholin-4-yl]-4,5-dimethyl-pyridazin-3-yl]-5-methyl-phenol]",208,> 10000
"Cc1c(-c2ccc(Cl)cc2O)nnc(N2CCO[C@H](CO)C2)c1C [Example 81, 5-chloro-2-[6-[(2S)-2-(hydroxymethyl)morpholin-4-yl]-4,5-dimethyl-pyridazin-3-yl]phenol]",164,9800
"Cc1cc(N2CCO[C@H](CO)C2)nnc1-c1ccc(Cl)cc1O [Example 85, 5-chloro-2-[6-[(2S)-2-(hydroxymethyl)morpholin-4-yl]-4-methyl-pyridazin-3-yl]phenol]",33,> 10000
"Cc1cc(C)c(-c2ccc(N3C[C@@H](O)CC3=O)nn2)c(O)c1 [Example 86, (4S)-4-hydroxy-1-[6-(2-hydroxy-4,6-dimethyl-phenyl)pyridazin-3-yl]pyrrolidin-2-one]",506,> 10000
"Cc1cc(C)c(-c2ccc(N3CCO[C@@H](CN)C3)nn2)c(O)c1 [Example 87, 2-[6-[(2S)-2-(aminomethyl)morpholin-4-yl]pyridazin-3-yl]-3,5-dimethyl-phenol; 2,2,2-trifluoroacetic acid]",311,> 10000
"COc1ccc(-c2nnc(N3CCO[C@H](CO)C3)cc2C)c(O)c1 [Example 116, 2-[6-[(2S)-2-(hydroxymethyl)morpholin-4-yl]-4-methyl-pyridazin-3-yl]-5-methoxy-phenol]",454,> 10000
"COc1cc(C)c(-c2nnc(N3CCO[C@H](CO)C3)cc2C)c(O)c1 [Example 119, 2-[6-[(2S)-2-(hydroxymethyl)morpholin-4-yl]-4-methyl-pyridazin-3-yl]-5-methoxy-3-methyl-phenol]",561,> 10000
"Cc1cc(OC(F)(F)F)cc(O)c1-c1ccc(N2CCO[C@H](CO)C2)nn1 [Example 121, 2-[6-[(2S)-2-(hydroxymethyl)morpholin-4-yl]pyridazin-3-yl]-3-methyl-5-(trifluoromethoxy)phenol]",92,> 10000
"Cc1cc(C)c(-c2ccc(N3CCC(CO)C3=O)nn2)c(O)c1 (centres unmarked) [Example 122, 1-[6-(2-hydroxy-4,6-dimethyl-phenyl)pyridazin-3-yl]-3-(hydroxymethyl) pyrrolidin-2-one]",149,> 10000
"CCC(=O)C1CN(c2ccc(-c3c(C)cc(C)cc3O)nn2)CCO1 (centres unmarked) [Example 126, 1-[4-[6-(2-hydroxy-4,6-dimethylphenyl)pyridazin-3-yl]morpholin-2-yl]propan-1-one]",484,> 10000
"Cc1cc(Cl)cc(O)c1-c1ccc(N2CC[C@H](CO)C2)nn1 [Example 127, 5-chloro-2-[6-[(3S)-3-(hydroxymethyl)pyrrolidin-1-yl]pyridazin-3-yl]-3-methyl-phenol]",125,> 10000
"CC(=O)NC[C@@H]1COCCN1c1ccc(-c2c(C)cc(C)cc2O)nn1 [Example 129, N-[[(3R)-4-[6-(2-hydroxy-4,6-dimethyl-phenyl)pyridazin-3-yl]morpholin-3-yl]methyl]acetamide]",665,> 10000
"Cc1cc(Cl)cc(O)c1-c1ccc(N2C[C@@H](O)CC2=O)nn1 [Example 130, (4S)-1-[6-(4-chloro-2-hydroxy-6-methyl-phenyl)pyridazin-3-yl]-4-hydroxy-pyrrolidin-2-one]",99,> 10000

Compound,IC50 (NLRP3 inflammasome) [nM],IC50 [1] [nM]
"Cc1cc(C)c(-c2ccc(N3C[C@@H](N)CC3=O)nn2)c(O)c1 [Example 131, (4S)-4-amino-1-[6-(2-hydroxy-4,6-dimethyl-phenyl)pyridazin-3-yl]pyrrolidin-2-one]",387,> 10000
"Cc1cc(C(F)(F)F)cc(O)c1-c1ccc(N2C[C@H](O)CC2=O)nn1 [Example 132, (4R)-4-hydroxy-1-[6-[2-hydroxy-6-methyl-4-(trifluoromethyl)phenyl]pyridazin-3-yl]pyrrolidin-2-one]",362,> 10000
"Cc1cc(-c2c(C)cc(Cl)cc2O)nnc1N1CCO[C@H](CO)C1 [Example 133, 5-chloro-2-[6-[(2S)-2-(hydroxymethyl)morpholin-4-yl]-5-methyl-pyridazin-3-yl]-3-methyl-phenol]",68,> 10000
"Cc1cc(C(F)F)cc(O)c1-c1ccc(N2CCO[C@H](CO)C2)nn1 [Example 134, 5-(difluoromethyl)-2-[6-[(2S)-2-(hydroxymethyl)morpholin-4-yl]pyridazin-3-yl]-3-methyl-phenol]",71,> 10000
"Cc1ccc(C)c(-c2ccc(N3CCO[C@H](CO)C3)nn2)c1O [Example 141, 2-[6-[(2S)-2-(hydroxymethyl)morpholin-4-yl]pyridazin-3-yl]-3,6-dimethylphenol]",131,> 10000
"Cc1ccc(-c2nnc(N3CCO[C@H](CO)C3)cc2C(F)F)c(O)c1 [Example 144, 2-[4-(difluoromethyl)-6-[(2S)-2-(hydroxymethyl)morpholin-4-yl]pyridazin-3-yl]-5-methyl-phenol]",151,> 10000
"OC[C@@H]1CN(c2cc(C(F)F)c(-c3ccc(Cl)cc3O)nn2)CCO1 [Example 145, 5-chloro-2-[4-(difluoromethyl)-6-[(2S)-2-(hydroxymethyl)morpholin-4-yl]pyridazin-3-yl]phenol]",34,> 10000
"Cc1cc(N2CCO[C@H](CO)C2)nnc1-c1c(C)cc(Cl)cc1O [Example 149, 5-chloro-2-[6-[(2S)-2-(hydroxymethyl)morpholin-4-yl]-4-methyl-pyridazin-3-yl]-3-methyl-phenol]",52,> 10000
"Cc1cc(O)c(-c2ccc(N3CCO[C@H](CO)C3)nn2)c(C(F)F)c1 [Example 153, 3-(difluoromethyl)-2-[6-[(2S)-2-(hydroxymethyl)morpholin-4-yl]pyridazin-3-yl]-5-methyl-phenol]",47,> 10000
"Cc1ccc(-c2nnc(N3CCO[C@H](CO)C3)cc2C(F)(F)F)c(O)c1 [Example 155, 2-[6-[(2S)-2-(hydroxymethyl)morpholin-4-yl]-4-(trifluoromethyl)pyridazin-3-yl]-5-methyl-phenol]",461,> 10000
"Cc1cc(C)c(-c2cc(C#N)c(N3CCO[C@H](CO)C3)nn2)c(O)c1 [Example 158, 6-(2-hydroxy-4,6-dimethyl-phenyl)-3-[(2S)-2-(hydroxymethyl)morpholin-4-yl]pyridazine-4-carbonitrile]",85,> 10000
"Cc1cc(C(F)(F)F)cc(O)c1-c1cc(C#N)c(N2CCO[C@H](CO)C2)nn1 [Example 159, 3-[(2S)-2-(hydroxymethyl)morpholin-4-yl]-6-[2-hydroxy-6-methyl-4-(trifluoromethyl)phenyl]pyridazine-4-carbonitrile]",43,> 10000
"OC[C@@H]1CN(c2cc(C(F)(F)F)c(-c3ccc(Cl)cc3O)nn2)CCO1 [Example 160, 5-chloro-2-[6-[(2S)-2-(hydroxymethyl)morpholin-4-yl]-4-(trifluoromethyl)pyridazin-3-yl]phenol]",171,> 10000
"Oc1cc(Cl)cc(Cl)c1-c1ccc(N2CCOC(CF)C2)nn1 (centres unmarked) [Example 161, 3,5-dichloro-2-[6-[2-(fluoromethyl)morpholin-4-yl]pyridazin-3-yl]phenol]",28,> 10000
"Cc1cc(C)c(-c2ccc(N3CCOc4ccc(O)cc43)nn2)c(O)c1 [Example 162, 4-[6-(2-hydroxy-4,6-dimethyl-phenyl)pyridazin-3-yl]-2,3-dihydro-1,4-benzoxazin-6-ol]",10,> 10000
"Cc1cc(Cl)cc(O)c1-c1cc(C#N)c(N2CCO[C@H](CO)C2)nn1 [Example 163, 6-(4-chloro-2-hydroxy-6-methyl-phenyl)-3-[(2S)-2-(hydroxymethyl)morpholin-4-yl]pyridazine-4-carbonitrile]",7,> 10000
"CC(=O)NC[C@@H]1CCCN(c2ccc(-c3c(C)cc(C(F)(F)F)cc3O)nn2)C1 [Example 164, N-[[(3S)-1-[6-[2-hydroxy-6-methyl-4-(trifluoromethyl)phenyl]pyridazin-3-yl]-3-piperidyl]methyl]acetamide]",81,> 10000
